Values quoted from earlier work in patent US20190388365A1, “C[…] NEURO-DEGENERATIVE DISEASES AND SIDE-EFFECTS ASSOCIATED WITH COGNITION EFFECTING PHARMACEUTICALS” (priority 2015, published 2019).

Tested on: patients receiving morphine
Conditions: limited clinical trials

## NC(=O)C[S+]([O-])C(c1ccccc1)c1ccccc1 (racemic) [Modafinil, benzhydrylsulfinylacetamide]
  effect on sleepiness and confusion associated with morphine delivery: reverses the sleepiness and even confusion associated with morphine delivery
